Data set [1] relates to phospho-ERK. As to the kind of experiment: Western blot, ERK phosphorylation in SRB1 and NHEK cells. Type of data set: cell-based, human. The note with it: 0.6 μM (NHEK) or 1.2 μM (SRB1). The source says: Figure 2. […] DOI: http://dx.doi.org/10.7554/eLife.00969.010 [drawing 5]
A general note: A western blot detects proteins with antibodies after separation by electrophoresis.

The subject of data set [2] is E1A and HRAS^G12V-transformed wild-type (WT) MEFs. As to the kind of experiment: Soft agar colony formation. Type of data set: cell-based, mouse. The note with it: 0.05 μM.
The target of data set [3] is T1, full length MAP4K5 (Homo sapiens, UniProt Q9Y4K4).
T1 construct: and full length MAP4K5 (MBP substrate, ATP 10 μM) (Reaction Biology); purchased Reaction Biology
Nature of the data set: In vitro kinase assay (Reaction Biology). Type of data set: biochemical. Particulars: up to 1 μM.

Data set [4] in a line: Serum concentration in humans. In kind it is in vivo, human. The note with it: 150 mg PO BID vs vemurafenib 960 mg PO BID.
The test system of data set [5] is cSCC in treated patients. The note with it: 150 mg PO BID, ref Falchook et al., 2012, Hauschild et al., Long et al.; cited from earlier work.
For data set [6], the target named is T2, MKK4 (amino acids 33-end) (Homo sapiens, UniProt P45985).
T2 construct: amino acids 33-end MKK4 (JNK1 substrate, ATP 0.1 μM); purchased Reaction Biology
Nature of the data set: In vitro kinase assay (Reaction Biology). In kind it is biochemical. Particulars: up to 1 μM.

Data set [7] concerns HaCaT cells. Nature of the data set: UV-induced apoptosis, FACS Annexin V+, TMRE-low. Type of data set: cell-based, human. The note with it: 0.05 μM.
Data set [8] relates to A375 melanoma cell line. The note with it: ref Greger et al., 2012; cited from earlier work.
The subject of data set [9] is A375 and WM35 BRAF^V600E melanoma cell lines. Nature of the data set: Growth of BRAF^V600E melanoma cell lines. Particulars: bioequivalent doses: dabrafenib 0.05 μM, PLX4720 1.0 μM. Type of data set: cell-based, human.
For data set [10], the target named is T3, human full-length ZAK (Homo sapiens, UniProt Q9NYL2).
T3 construct: In vitro kinase assays were performed using human full-length ZAK; purchased Reaction Biology
Nature of the data set: In vitro kinase assay (Reaction Biology). In kind it is biochemical.

For data set [11] the following is noted: 150 mg PO BID in humans, ref Falchook et al., 2012; cited from earlier work.
Data set [12] deals with phospho-JNK. As to the kind of experiment: Western blot, UV-induced phospho-JNK in cSCC and HaCaT cell lines. In kind it is cell-based, human. Particulars: 0.05 μM, HaCaT and SRB1 cells.
Data set [13] has as its system E1A and HRAS^G12V-transformed Craf−/− MEFs. As to the kind of experiment: Soft agar colony formation. Type of data set: cell-based, mouse. The note with it: 0.05 μM.
The subject of data set [14] is SRB1 cells. Nature of the data set: UV-induced apoptosis, FACS Annexin V+, TMRE-low. In kind it is cell-based, human. Particulars: 0.05 μM.

Each structure is given as a SMILES string. Where only a bound is given, the exact number is not on record here.

T1 sequence (Q9Y4K4 whole entry): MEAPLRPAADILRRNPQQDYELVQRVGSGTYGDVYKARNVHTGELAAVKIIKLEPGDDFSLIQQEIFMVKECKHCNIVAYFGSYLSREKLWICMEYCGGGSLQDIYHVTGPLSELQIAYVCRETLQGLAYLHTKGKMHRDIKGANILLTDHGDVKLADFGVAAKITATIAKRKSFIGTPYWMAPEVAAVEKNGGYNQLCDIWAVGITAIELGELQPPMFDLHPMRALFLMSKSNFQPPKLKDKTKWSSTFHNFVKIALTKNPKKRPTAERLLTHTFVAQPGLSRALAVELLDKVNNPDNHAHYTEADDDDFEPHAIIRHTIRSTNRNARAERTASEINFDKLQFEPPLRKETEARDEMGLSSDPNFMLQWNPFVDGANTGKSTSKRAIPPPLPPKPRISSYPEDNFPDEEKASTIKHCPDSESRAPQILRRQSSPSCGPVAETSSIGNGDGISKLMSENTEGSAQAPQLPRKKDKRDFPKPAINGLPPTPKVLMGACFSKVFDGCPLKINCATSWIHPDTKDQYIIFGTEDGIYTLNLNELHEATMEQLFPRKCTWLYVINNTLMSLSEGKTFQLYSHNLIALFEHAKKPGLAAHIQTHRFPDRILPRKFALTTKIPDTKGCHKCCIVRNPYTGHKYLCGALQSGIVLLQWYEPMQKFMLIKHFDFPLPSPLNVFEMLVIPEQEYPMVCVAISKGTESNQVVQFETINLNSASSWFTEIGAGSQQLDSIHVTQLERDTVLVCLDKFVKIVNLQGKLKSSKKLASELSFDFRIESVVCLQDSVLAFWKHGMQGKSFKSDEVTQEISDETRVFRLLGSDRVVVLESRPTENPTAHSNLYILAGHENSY
T2 sequence (P45985 33-399 limits assumed): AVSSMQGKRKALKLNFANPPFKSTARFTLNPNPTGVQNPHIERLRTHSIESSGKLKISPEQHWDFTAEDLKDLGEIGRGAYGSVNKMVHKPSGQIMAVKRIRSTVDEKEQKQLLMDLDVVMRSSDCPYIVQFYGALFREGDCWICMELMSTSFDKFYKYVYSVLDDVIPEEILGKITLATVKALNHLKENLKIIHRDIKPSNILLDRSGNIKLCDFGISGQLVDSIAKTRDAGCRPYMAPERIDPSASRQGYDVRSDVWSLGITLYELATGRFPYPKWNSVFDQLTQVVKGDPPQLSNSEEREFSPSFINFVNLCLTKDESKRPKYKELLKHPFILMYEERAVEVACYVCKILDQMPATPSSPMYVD

Take `Cn1cnc2c(F)c(Nc3ccc(Br)cc3Cl)c(C(=O)NOCCO)cc21` [AZD6244]: in data set [1], the “ERK phosphorylation and activation” value is listed as “effectively abrogated”.
By GI50 is commonly meant the concentration giving 50% growth inhibition. One may read the IC50 as the point on the concentration scale where inhibition reaches its midpoint. On to `CC(C)(C)c1nc(-c2cccc(NS(=O)(=O)c3c(F)cccc3F)c2F)c(-c2ccnc(N)n2)s1` [dabrafenib], for which the colony formation entry in data set [2] was “significant growth advantage”; in data set [13], “fails to confer a significant growth advantage”. Further, the “inhibition of MAP4K5” value in data set [3] is “no significant inhibition”. Moreover, in data set [4], the “peak serum concentration, fold lower than mean sustained serum levels of vemurafenib” value was “over 50 fold”. In addition, the “overall aggregated cSCC rate” value in data set [5] is given as 6.1%. In [6], the “inhibition of MKK4” value is “no significant inhibition”. Moreover, the UV-induced apoptosis entry in data set [7] and in [14] was “fails to suppress” each time. Besides, in data set [8], the GI50 was less than 10 nM. Besides, the “growth of A375 and WM35 cells” value in [9] is “suppress the growth”. In addition, in data set [10] (MBP substrate, ATP 2.5 μM, read-out: biochemical IC50), the IC50 came out at 28.9 ± 2.23 nM. Further, the “retained activity of ZAK kinase” value in data set [10] (at 0.01 μM) is listed as “over 64%”. Besides, in data set [11], the peak serum concentrations is 1.55 µM. Also, the “UV-induced phospho-JNK induction” value in data set [12] is “fails to suppress”.

The values above are taken from PMC3814616, “BRAF inhibitors suppress apoptosis through off-target inhibition of JNK signaling” (eLife, 2013).
